# Experimental data reported in patent publication US20130071854A1, “METHODS FOR THE IDENTIFICATION AND CHARACTERIZATION OF HDAC INTERACTING COMPOUNDS” (priority 2009, published 2013).
# Where two headings read alike, the source gives them in different places.
# Key:
# HDAC1 = molecular target: T1, HDAC1 (Homo sapiens, UniProt Q13547); test: Chemoproteomic binding profiling, K562 cell extract, SAHA/ITF2357 probe matrix (Kd app)
# T1 construct: used to probe endogenous HDACs in K562 whole cell extracts; endogenous in cells
# acetylated tubulin = test: Cell-based tubulin acetylation assay (immunofluorescence, western blotting); set-up: species or system human; details: K562 and HeLa cells; immunofluorescence and western blotting
# NuRD complex = test: Chemoproteomic binding profiling, K562 cell extract, SAHA/ITF2357 probe matrix (Kd app); set-up: species or system human
# MIER2 = test: Chemoproteomic binding profiling, K562 cell extract, SAHA/ITF2357 probe matrix (Kd app), ELSA (ELM-SANT) domain protein; set-up: species or system human; details: ELSA (ELM-SANT) domain proteins
# [1] = molecular target: T2, non-HDAC targets (e.g. BZW2, ISOC2, aldehyde dehydrogenases) (Homo sapiens, UniProt Q08209); test: Chemoproteomic binding profiling, K562 cell extract, SAHA/ITF2357 probe matrix (Kd app); details: protein PPP3CA; selected HDACi off-targets
# T2 construct: Kd^app PPP3CA; other: protein PPP3CA; selected HDACi off-targets
# [2] = molecular target: T3, non-HDAC targets (e.g. BZW2, ISOC2, aldehyde dehydrogenases) (Homo sapiens, UniProt P16152); test: as above; details: protein CBR1; selected HDACi off-targets
# T3 construct: Kd^app CBR1; other: protein CBR1; selected HDACi off-targets
# T3 sequence (P16152 1-277): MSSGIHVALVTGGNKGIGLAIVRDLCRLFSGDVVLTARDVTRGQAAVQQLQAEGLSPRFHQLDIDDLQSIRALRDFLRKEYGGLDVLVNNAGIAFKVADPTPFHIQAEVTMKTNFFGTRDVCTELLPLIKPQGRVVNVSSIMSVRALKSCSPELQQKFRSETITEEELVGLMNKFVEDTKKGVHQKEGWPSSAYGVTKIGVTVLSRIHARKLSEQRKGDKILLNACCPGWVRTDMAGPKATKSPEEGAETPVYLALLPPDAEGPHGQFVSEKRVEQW
# [3] = molecular target: T4, non-HDAC targets (e.g. BZW2, ISOC2, aldehyde dehydrogenases) (Homo sapiens, UniProt O94788); test: as above; details: protein ALDH1A2; selected HDACi off-targets
# T4 construct: endogenous in cells; host or cells: K562 whole cell extract
# T4 sequence (O94788 1-518): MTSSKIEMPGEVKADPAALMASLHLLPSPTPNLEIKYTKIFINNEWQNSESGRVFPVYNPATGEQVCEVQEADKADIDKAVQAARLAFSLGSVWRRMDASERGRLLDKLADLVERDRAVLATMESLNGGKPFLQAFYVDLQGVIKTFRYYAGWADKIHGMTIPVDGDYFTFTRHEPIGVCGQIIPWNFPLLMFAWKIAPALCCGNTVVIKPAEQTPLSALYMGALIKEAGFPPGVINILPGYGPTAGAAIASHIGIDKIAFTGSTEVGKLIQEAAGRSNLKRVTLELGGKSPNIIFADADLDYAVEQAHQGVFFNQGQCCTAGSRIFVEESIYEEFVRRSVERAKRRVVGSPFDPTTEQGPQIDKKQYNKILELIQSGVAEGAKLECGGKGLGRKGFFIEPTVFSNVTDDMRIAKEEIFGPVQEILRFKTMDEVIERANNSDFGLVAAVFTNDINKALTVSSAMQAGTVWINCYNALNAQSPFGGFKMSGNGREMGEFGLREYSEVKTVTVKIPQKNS
# [4] = molecular target: T5, non-HDAC targets (e.g. BZW2, ISOC2, aldehyde dehydrogenases) (Homo sapiens, UniProt Q96AB3); test: as above; details: protein ISOC2; selected HDACi off-targets
# T5 construct: endogenous in cells; host or cells: K562 whole cell extract
# T5 sequence (Q96AB3 1-205): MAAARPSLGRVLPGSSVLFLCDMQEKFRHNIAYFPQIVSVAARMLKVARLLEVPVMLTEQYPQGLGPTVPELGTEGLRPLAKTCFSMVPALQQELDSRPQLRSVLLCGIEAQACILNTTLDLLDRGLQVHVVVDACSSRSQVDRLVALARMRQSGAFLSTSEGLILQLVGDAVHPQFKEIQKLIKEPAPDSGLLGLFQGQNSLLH
# [5] = molecular target: T6, non-HDAC targets (e.g. BZW2, ISOC2, aldehyde dehydrogenases) (Homo sapiens, UniProt Q9Y6E2); test: as above; details: protein BZW2; selected HDACi off-targets
# T6 construct: endogenous in cells; host or cells: K562 whole cell extract
# T6 sequence (Q9Y6E2 1-419): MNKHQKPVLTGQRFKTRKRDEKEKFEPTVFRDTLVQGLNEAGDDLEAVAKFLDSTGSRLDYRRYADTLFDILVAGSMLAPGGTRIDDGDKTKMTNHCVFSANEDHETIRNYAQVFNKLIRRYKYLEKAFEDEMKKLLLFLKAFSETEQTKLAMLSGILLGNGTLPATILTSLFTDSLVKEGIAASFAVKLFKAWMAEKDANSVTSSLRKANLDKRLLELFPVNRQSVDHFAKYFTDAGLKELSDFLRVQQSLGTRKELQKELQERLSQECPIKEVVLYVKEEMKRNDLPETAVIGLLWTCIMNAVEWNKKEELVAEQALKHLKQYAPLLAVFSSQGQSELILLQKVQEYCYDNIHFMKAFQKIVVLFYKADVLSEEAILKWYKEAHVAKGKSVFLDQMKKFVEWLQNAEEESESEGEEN
# EHMT2 = test: Chemoproteomic binding profiling, K562 cell extract, SAHA/ITF2357 probe matrix (Kd app), ELSA (ELM-SANT) domain proteins group; set-up: species or system human; details: protein EHMT2
# MIER3 = test: Chemoproteomic binding profiling, K562 cell extract, SAHA/ITF2357 probe matrix (Kd app), ELSA (ELM-SANT) domain protein; set-up: species or system human; details: ELSA (ELM-SANT) domain proteins
# RERE = test: as above; set-up: species or system human
# MIER1 = test: as above; set-up: species or system human; details: ELSA (ELM-SANT) domain proteins
# [6] = tested on: acetylated histones H3 and H4; test: Cell-based histone acetylation assay (immunofluorescence, western blotting); set-up: species or system human; details: K562 and HeLa cells
# CoREST complex = test: Chemoproteomic binding profiling, K562 cell extract, SAHA/ITF2357 probe matrix (Kd app); set-up: species or system human
# [7] = tested on: T7, MiDAC complex (HDAC1/2, DNTTIP1, CDYL, MIDEAS); test: as above; set-up: species or system human
# T7 construct: Kd^app MIDEAS; other: protein MIDEAS; MiDAC complex; Kd^app DNTTIP1; other: protein DNTTIP1
# Sin3 complex = test: as above; set-up: species or system human
# [8] = protein GATAD2A, NuRD complex, read-out: Kd^app GATAD2A
# [9] = protein GATAD2B, NuRD complex, read-out: Kd^app GATAD2B
# [10] = protein MBD2, NuRD complex, read-out: Kd^app MBD2
# [11] = protein MBD3, NuRD complex, read-out: Kd^app MBD3
# [12] = protein MTA1, NuRD complex, read-out: Kd^app MTA1
# [13] = protein MTA2, NuRD complex, read-out: Kd^app MTA2
# [14] = protein MTA3, NuRD complex, read-out: Kd^app MTA3
# [15] = protein DNTTIP1, read-out: Kd^app DNTTIP1
# [16] = protein MIDEAS, read-out: Kd^app MIDEAS
# [17] = protein RERE, ELSA (ELM-SANT) domain proteins
# [18] = protein SAP30, read-out: Kd^app SAP30
# [19] = protein SIN3A, read-out: Kd^app SIN3A
# [20] = protein SIN3B, read-out: Kd^app SIN3B
# [21] = protein GSE1, CoREST complex, read-out: Kd^app GSE1
# [22] = protein HMG20A, CoREST complex, read-out: Kd^app HMG20A
# [23] = protein HMG20B, CoREST complex, read-out: Kd^app HMG20B
# [24] = protein PHF21A, CoREST complex, read-out: Kd^app PHF21A
# [25] = protein RCOR1, CoREST complex, read-out: Kd^app RCOR1
# [26] = protein RCOR2, CoREST complex, read-out: Kd^app RCOR2
# [27] = protein RCOR3, CoREST complex, read-out: Kd^app RCOR3
# [28] = protein ZMYM2, CoREST complex, read-out: Kd^app ZMYM2
# [29] = protein ZMYM3, CoREST complex, read-out: Kd^app ZMYM3
# T1 sequence (Q13547 whole entry): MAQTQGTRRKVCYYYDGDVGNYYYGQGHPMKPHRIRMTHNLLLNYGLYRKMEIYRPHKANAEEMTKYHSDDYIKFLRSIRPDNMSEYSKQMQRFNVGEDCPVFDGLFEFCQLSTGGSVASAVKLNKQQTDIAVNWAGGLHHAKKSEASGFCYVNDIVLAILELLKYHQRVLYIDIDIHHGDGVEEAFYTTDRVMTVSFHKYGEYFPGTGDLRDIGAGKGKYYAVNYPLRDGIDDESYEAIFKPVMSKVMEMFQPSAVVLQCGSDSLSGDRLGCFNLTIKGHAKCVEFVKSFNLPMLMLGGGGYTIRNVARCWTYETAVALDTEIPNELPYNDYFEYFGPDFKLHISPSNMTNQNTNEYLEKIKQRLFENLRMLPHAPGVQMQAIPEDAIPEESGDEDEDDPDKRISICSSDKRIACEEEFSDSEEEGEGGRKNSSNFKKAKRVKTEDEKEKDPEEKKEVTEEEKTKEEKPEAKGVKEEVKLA
Compound,Kd (MIER2) [µM],Kd [1] [µM],Kd [2] [µM],Kd [3] [µM],Kd [4] [µM],Kd [5] [µM],Kd (EHMT2) [µM],Kd (MIER3) [µM],Kd (MIER1) [µM],Kd (NuRD complex; [8]) [µM],Kd (NuRD complex; [9]) [µM],Kd (NuRD complex; [10]) [µM],Kd (NuRD complex; [11]) [µM],Kd (NuRD complex; [12]) [µM],Kd (NuRD complex; [13]) [µM],Kd (NuRD complex; [14]) [µM],"Kd [7, 15] [µM]","Kd [7, 16] [µM]",Kd (RERE; [17]) [µM],Kd (Sin3 complex; [18]) [µM],other results
C/C=C1\NC(=O)[C@H]2CSSCC/C=C/[C@H](CC(=O)N[C@H](C(C)C)C(=O)N2)OC(=O)[C@H](C(C)C)NC1=O [romidepsin],–,–,–,–,–,–,–,–,–,–,–,–,–,–,–,–,–,–,–,–,Kd (HDAC1): 0.01 µM
CC(=O)Nc1ccc(C(=O)Nc2ccccc2N)cc1 [tacedinaline],184,> 85,> 85,> 85,> 85,> 85,> 85,171,195,–,–,–,–,–,–,–,–,–,–,–,tubulin acetylation (in words) (acetylated tubulin): did not affect tubulin; Kd (NuRD complex; read-out: Kd^app CHD4): > 85 µM; Kd (NuRD complex; read-out: Kd^app GATAD2A): 423 µM; Kd (NuRD complex; read-out: Kd^app GATAD2B): 306 µM; Kd (NuRD complex; read-out: Kd^app MBD2): > 85 µM; Kd (NuRD complex; read-out: Kd^app MBD3): 265 µM; Kd (NuRD complex; read-out: Kd^app MTA1): 152 µM; Kd (NuRD complex; read-out: Kd^app MTA2): 226 µM; Kd (NuRD complex; read-out: Kd^app MTA3): 263 µM; Kd (RERE): > 85 µM; histone acetylation (in words) [6]: elicited staining of acetylated histones; Kd (CoREST complex; read-out: Kd^app GSE1): 122 µM; Kd (CoREST complex; read-out: Kd^app HMG20A): 139 µM; Kd (CoREST complex; read-out: Kd^app HMG20B): 168 µM; Kd (CoREST complex; read-out: Kd^app RCOR1): 114 µM; Kd (CoREST complex; read-out: Kd^app RCOR2): 196 µM; Kd (CoREST complex; read-out: Kd^app RCOR3): 159 µM; Kd (CoREST complex; read-out: Kd^app ZMYM2): > 85 µM; Kd (CoREST complex; read-out: Kd^app ZMYM3): > 85 µM
COc1ccc(Cn2ccc3ccc(C(=O)NO)cc32)cc1 [PCI-34051],> 59.7,59.7,12.8,> 59.7,> 59.7,5.04,> 59.7,> 59.7,> 59.7,> 59.7,> 59.7,> 59.7,> 59.7,> 59.7,> 59.7,> 59.7,> 59.7,> 59.7,> 59.7,> 59.7,Kd (Sin3 complex; [19]): > 59.7 µM; Kd (Sin3 complex; [20]): > 59.7 µM; Kd (CoREST complex; [21]): > 59.7 µM; Kd (CoREST complex; [22]): > 59.7 µM; Kd (CoREST complex; [23]): > 59.7 µM; Kd (CoREST complex; [24]): > 59.7 µM; Kd (CoREST complex; [25]): > 59.7 µM; Kd (CoREST complex; [26]): > 59.7 µM; Kd (CoREST complex; [27]): > 59.7 µM; Kd (CoREST complex; [28]): > 59.7 µM; Kd (CoREST complex; [29]): > 59.7 µM
Cn1cc(C(=O)Cc2ccccc2)cc1C=CC(=O)NO [MC-1293],> 10,40,19,> 10,5,4,> 10,209,> 10,> 10,> 10,> 10,> 10,> 10,> 10,> 10,> 10,> 10,> 10,164,"Kd (NuRD complex; protein CHD4, NuRD complex, read-out: Kd^app CHD4): > 10 µM; Kd (Sin3 complex; [19]): > 10 µM; Kd (Sin3 complex; [20]): > 10 µM; Kd (CoREST complex; [21]): > 10 µM; Kd (CoREST complex; [22]): > 10 µM; Kd (CoREST complex; [23]): > 10 µM; Kd (CoREST complex; [24]): > 10 µM; Kd (CoREST complex; [25]): > 10 µM; Kd (CoREST complex; [26]): > 10 µM; Kd (CoREST complex; [27]): > 10 µM; Kd (CoREST complex; [28]): > 10 µM; Kd (CoREST complex; [29]): > 10 µM"
